Data from patent publication US20220306623A1, “PYRIDYL OR PYRIMIDYL MTOR KINASE INHIBITORS” (GLAXOSMITHKLINE INTELLECTUAL PROPERTY DEVELOPMENT LIMITED, priority 2019, published 2022).
Read-outs that look alike come from different tables or passages of the source.

Molecular target: T1, mTOR (Homo sapiens, UniProt P42345)
T1 construct: capturing of endogenously expressed target proteins from cell extracts by a bead-immobilized capturing ligand; endogenous in cells; host or cells: HuT-78 cells (ECACC 88041901), cell lysate
Assay: mTOR kinobeads competition-binding assay
Details: HuT-78 cell lysate
Experimental: The affinity of test compounds for mTOR was determined in the mTOR kinobeads assay. This is a competition-binding assay based on the capturing of endogenously expressed target proteins from cell extracts by a bead-immobilized capturing ligand in the presence of the test compound.
HuT-78 cells (European Collection of Authenticated Cell Cultures, 88041901) were cultured according to vendor's instructions. Frozen cell pellets were homogenized in 3× pellet volumes lysis buffer (50 mM Tris-HCl, 0.4% (v/v) Igepal-CA630, 5% glycerol, 150 mM NaCl, 1.5 mM MgCl2, 25 mM NaF, 1 mM sodium vanadate, 1 mM DTT, pH 7.5, supplemented with EDTA-free protease inhibitor tablet (Roche)). The sample was dispersed using a Dounce homogenizer, kept rotating for 30 min at 4° C., and centrifuged for 10 min at 20000 gat 4° C. The supernatant was centrifuged again for 1 h at 145 000 g. The protein concentration was determined by Bradford assay (BioRad), aliquots were snap frozen in liquid nitrogen and stored at −80° C.
The capturing matrices were generated by derivatizing N-hydroxysuccinimide (NHS) activated Sepharose 4 beads (GE Healthcare) with the functionalized ligands Compound A and Compound C at a ligand density of 5 mM. Remaining NHS-groups were blocked with ethanolamine.
For the mTOR kinobeads assay the matrices were combined in a 1:1 ratio and equilibrated in DP buffer (50 mM Tris-HCl (pH 7.5), 0.4% (v/v) Igepal-CA630, 5% (v/v) glycerol, 150 mM NaCl, 1.5 mM MgCl2, 25 mM NaF, 1 mM Na3VO4, 1 mM dithiothreitol). All steps of the mTOR kinobeads assay were performed at 4° C. or on ice. The cell lysate was diluted with DP buffer to a final concentration of 5 mg/ml and a final detergent concentration of 0.4% (v/v) Igepal-CA630. For the assay 250 μg cell lysate and 2.5 μl capturing matrix per well (final assay volume: 75 μl) were incubated in the presence of test compounds in a 384-well filter plate (MultiScreenHTS HV Filter Plate, 0.45 μm, MZHVNOW50, Merck Millipore). Each plate contained 16 positive (100 μM Compound B) and 16 negative (2% v/v DMSO) control wells. Compounds were tested in a concentration-response applying 1:3 or 1:4 dilution steps for in total 11 data points. DMSO concentration was 2% (v/v). After 2 h incubation on an overhead shaker (Roto-Shake Genie, Scientific Industries Inc.) at 4° C. the non-bound fraction was removed by washing the beads with DP buffer. Proteins retained on the beads were eluted in SDS sample buffer (200 mM Tris (pH 7.4), 250 mM Trizma Base, 4% (w/v) SDS, 20% (v/v) glycerol, 0.01% (w/v) bromophenol blue, 50 mM dithiothreitol) into a collection plate (384 well polypropylene microplate, V-shape, Greiner, 781 280). Eluates were spotted on nitrocellulose membranes (400 nl per spot) using an automated pin-tool liquid transfer (Biomek FX, Beckman). After drying, the membranes were rehydrated in 20% (v/v) ethanol and blocked by incubation with Odyssey blocking buffer (LICOR, 927-40000) for 1 h at room temperature. Blocked membranes were incubated overnight at 25° C. with Odyssey blocking buffer supplemented with a specific anti-mTOR antibody (Cell Signaling, 2972; 1:500) and 0.4% TWEEN-20. Then the membranes were washed in PBST buffer and incubated for 60 minutes at room temperature with the detection antibody (IRDye™ labelled antibody from LI-COR) diluted in Odyssey blocking buffer (LICOR 927-40000) containing 0.2% TWEEN-20. Then the membranes were washed with PBST and finally rinsed twice with PBS buffer to remove residual Tween-20. The membranes were then scanned with the Odyssey® Infrared Imaging System (LI-COR Biosciences). Fluorescence signals were recorded and analyzed according to the instructions of the manufacturer. Concentration response curves were computed with the software Activity Base. All data were normalized to the mean of 16 high (negative control) and 16 low (positive control) control wells on each plate. […]

[1] = bead-immobilized capturing ligand, 2 h at 4° C., mean of multiple experiments, read-out: mean pIC50, mTOR kinobeads assay (converted)
[2] = selected compounds, mean, read-out: mTOR (mean pIC50 values when tested in the mTOR binding assay) (converted)

Compound | IC50 [1] | IC50 [2]
CC[C@H]1COCCN1c1cc(CS(C)(=O)=O)nc(-c2ccc3[nH]c(CNC)cc3n2)n1 [Example 1, [(5-{4-[(3S)-3-ethylmorpholin-4-yl]-6-(methanesulfonylmethyl)pyrimidin-2-yl}-1H-pyrrolo[3,2-b]pyridin-2-yl)methyl](methyl)amine] | ≤ 1.26 nM | 0.794 nM
CC[C@H]1COCCN1c1cc(CS(C)(=O)=O)nc(-c2ccc3[nH]c(CO)cc3n2)n1 [Example 2, (S)-(5-(4-(3-ethylmorpholino)-6-((methylsulfonyl)methyl)pyrimidin-2-yl)-1H-pyrrolo[3,2-b]pyridin-2-yl)methanol] | ≤ 1.26 nM | 
CC[C@H]1COCCN1c1cc(C2(S(C)(=O)=O)CCOCC2)nc(-c2ccc3[nH]c(CO)cc3n2)n1 [Example 4, (5-{4-[(3S)-3-ethylmorpholin-4-yl]-6-(4-methanesulfonyloxan-4-yl)pyrimidin-2-yl}-1H-pyrrolo[3,2-b]pyridin-2-yl)methanol] | ≤ 1.26 nM | 
CC[C@H]1COCCN1c1cc(CS(N)(=O)=O)nc(-c2ccc3[nH]c(CNC)cc3n2)n1 [Example 6, {6-[(3S)-3-ethylmorpholin-4-yl]-2-{2-[(methylamino)methyl]-1H-pyrrolo[3,2-b]pyridin-5-yl}pyrimidin-4-yl}methanesulfonamide] | ≤ 1.26 nM | 
CC[C@H]1COCCN1c1cc(CS(=O)(=O)N(C)C)nc(-c2ccc3[nH]c(CO)cc3n2)n1 [Example 9, 1-{6-[(3S)-3-ethylmorpholin-4-yl]-2-[2-(hydroxymethyl)-1H-pyrrolo[3,2-b]pyridin-5-yl]pyrimidin-4-yl}-N,N-dimethylmethanesulfonamide] | ≤ 0.316 nM | 
CC[C@H]1COCCN1c1cc(CS(=O)(=O)NC)nc(-c2ccc3[nH]c(CO)cc3n2)n1 [Example 10, 1-{6-[(3S)-3-ethylmorpholin-4-yl]-2-[2-(hydroxymethyl)-1H-pyrrolo[3,2-b]pyridin-5-yl]pyrimidin-4-yl}-N-methylmethanesulfonamide] | ≤ 0.0794 nM | 
CC[C@H]1COCC(=O)N1c1cc(CS(C)(=O)=O)nc(-c2ccc3[nH]c(C)cc3n2)n1 [Example 14, (5S)-5-ethyl-4-[6-(methanesulfonylmethyl)-2-{2-methyl-1H-pyrrolo[3,2-b]pyridin-5-yl}pyrimidin-4-yl]morpholin-3-one] | ≤ 0.2 nM | 0.2 nM
CCc1cc2nc(-c3nc(CS(C)(=O)=O)cc(N4C(=O)COC[C@@H]4CC)n3)ccc2[nH]1 [Example 15, (5S)-5-ethyl-4-(2-{2-ethyl-1H-pyrrolo[3,2-b]pyridin-5-yl}-6-(methanesulfonylmethyl)pyrimidin-4-yl)morpholin-3-one] | ≤ 0.316 nM | 0.316 nM
CC[C@H]1COCCN1c1cc(CS(=O)(=O)N(C)C)nc(-c2ccc3[nH]c(CNC)cc3n2)n1 [Example 16, 1-{6-[(3S)-3-ethylmorpholin-4-yl]-2-{2-[(methylamino)methyl]-1H-pyrrolo[3,2-b]pyridin-5-yl}pyrimidin-4-yl}-N,N-dimethylmethanesulfonamide] | ≤ 1.26 nM | 0.631 nM
CC[C@H]1COCCN1c1cc(CS(N)(=O)=O)cc(-c2ccc3[nH]c(C)cc3n2)n1 [Example 23, (S)-(2-(3-ethylmorpholino)-6-(2-methyl-1H-pyrrolo[3,2-b]pyridin-5-yl)pyridin-4-yl)methanesulfonamide] | ≤ 1.26 nM | 
CC[C@H]1COCC(=O)N1c1cc(CS(C)(=O)=O)cc(-c2ccc3[nH]c(CO)cc3n2)n1 [Example 27] | ≤ 1.26 nM | 

Next, values leading:

IC50 [1] | IC50 [2] | Compound
≤ 1.26 nM |  | CC[C@H]1COCCN1c1cc(C2(S(C)(=O)=O)CCOCC2)nc(-c2ccc3[nH]c(C)cc3n2)n1 [Example 13, (3S)-3-ethyl-4-[6-(4-methanesulfonyloxan-4-yl)-2-{2-methyl-1H-pyrrolo[3,2-b]pyridin-5-yl}pyrimidin-4-yl]morpholine]
 | 6.31 nM | CC[C@H]1COCCN1c1cc(C2(S(C)(=O)=O)CCNCC2)cc(-c2ccc3[nH]c(C)cc3n2)n1 [Example 18, (S)-3-ethyl-4-(6-(2-methyl-1H-pyrrolo[3,2-b]pyridin-5-yl)-4-(4-(methylsulfonyl)piperidin-4-yl)pyridin-2-yl)morpholine]
≤ 1.26 nM | 0.501 nM | CC[C@H]1COCC(=O)N1c1cc(CS(C)(=O)=O)cc(-c2ccc3[nH]c(C)cc3n2)n1 [Example 24, (S)-5-ethyl-4-(6-(2-methyl-1H-pyrrolo[3,2-b]pyridin-5-yl)-4-((methylsulfonyl)methyl)pyridin-2-yl)morpholin-3-one]
≤ 1.26 nM |  | CC[C@H]1COCC(=O)N1c1cc(C2(S(C)(=O)=O)CCOCC2)cc(-c2ccc3[nH]c(C)cc3n2)n1 [Example 25, (S)-5-ethyl-4-(6-(2-methyl-1H-pyrrolo[3,2-b]pyridin-5-yl)-4-(4-(methylsulfonyl)tetrahydro-2H-pyran-4-yl)pyridin-2-yl)morpholin-3-one]
≤ 0.316 nM |  | CC[C@H]1COCC(=O)N1c1cc(C2(S(C)(=O)=O)CCOCC2)cc(-c2ccc3[nH]c(CO)cc3n2)n1 [Example 26]
